Where two headings read alike, the source gives them in different places.
Tests used:
NR2B-subtype receptors = biological target: T1, NR2B-subtype receptors (Mus musculus, UniProt P35438+Q01097); assay: Ex vivo occupancy assay; format: in vivo; settings: for receptor occupancy at 3 mg/kg: mouse, iv
T1 construct: brain-resident NR2B-subtype receptors; from tissue; host or cells: forebrain membrane homogenates of dosed CD-1 mice
Description: Ex vivo occupancy assay. […] 7-9 weeks old male CD-1 mice were dosed intravenously in a vehicle consisting of 10% dimethylacetamide, 40% PEG-400, 30% hydroxypropyl betacyclodextrin, and 30% water with experimental compounds and the forebrains were harvested 15 minutes post-dosing by decapitation. The brain samples were immediately snap-frozen and stored at −80° C. On the following day, the dosed brain samples were thawed on ice for 15-20 minutes followed by homogenization using Polytron for 10 seconds in cold homogenization buffer composed of 50 mM KH2PO4 (pH adjusted to 7.4 with KOH), 1 mM EDTA, 0.005% Triton X 100 and protease inhibitor cocktail (Sigma Aldrich). The crude homogenates were further homogenized using a Dounce homogenizer and the homogenized membrane aliquots from all animals were flash-frozen and stored at −80° C. until further use. The whole homogenization process was performed on ice.
For determining occupancy, the membrane homogenates were first thawed on ice and then needle-homogenized using a 25 gauge needle. The homogenized membrane (6.4 mg/ml) was added to a 96-well plate followed by addition of ^3H Ro 25-6981 (6 nM). The reaction mixture was incubated for 5 minutes on a shaker at 4° C. and then harvested onto GF/B filter plates (treated with 0.5% PEI for 1 hr at room temperature). The filter plates were dried at 50° C. for 20 mins, incubated with microscint 20 for 10 minutes and read on TopCount (Perkin Elmer). Each dose or compound group consisted of 4-5 animals. The control group of animals was dosed with vehicle alone. Membrane from each animal was added in triplicates to the assay plate. Non-specific binding was determined using 10 μM Ro 25-6981 added to the wells containing membrane homogenates from vehicle-dosed animals. Specific counts/minute was converted to % occupancy at each dose of a compound for each animal using the following equation:
(§1) [formula] […] Drug levels were determined by mass spectroscopy in the usual manner. Drug levels in the blood plasma were 1018 nM in at this dose, and drug levels in the homogonized brain tissue were 1342 nM.

[1] = biological target: T2, NR2B-subtype NMDA receptors (Rattus norvegicus, UniProt P35439+Q00960); assay: Radioligand binding assay (3H Ro 25-6981 competition); settings: rat forebrain membranes, 3H Ro 25-6981 (4 nM)
T2 construct: from tissue; host or cells: rat forebrain membrane homogenate (Sprague Dawley, Harlan)
Description: Radioligand binding assay. Binding experiments to determine binding to NR2B-subtype NMDA receptors were performed on forebrains of 8-10 weeks old male Sprague Dawley rats (Harlan, Netherlands) using ^3H Ro 25-6981 (Mutel V; Buchy D; Klingelschmidt A; Messer J; Bleuel Z; Kemp J A; Richards J G. Journal of Neurochemistry, 1998, 70(5):2147-2155. Rats were decapitated without anesthesia using a Guillotine (approved by animal ethics committee) and the harvested brains were snap-frozen and stored at −80° C. for 3-6 months for membrane preparation.
For membrane preparation, rat forebrains were thawed on ice for 20 minutes in homogenization buffer composed of 50 mM KH2PO4 (pH adjusted to 7.4 with KOH), 1 mM EDTA, 0.005% Triton X 100 and protease inhibitor cocktail (Sigma Aldrich). Thawed brains were homogenized using a Dounce homogenizer and centrifuged at 48000×g for 20 min. The pellet was resuspended in cold buffer and homogenized again using a Dounce homogenizer. Subsequently, the homogenate was aliquoted, snap-frozen and stored at −80° C. for not more than 3-4 months.
To perform the competition binding assay, thawed membrane homogenate was added to each well of a 96-well plate (20 μg/well). […] The filter plates were dried at 50° C. for 20 mins, incubated with microscint 20 for 10 minutes and finally, the counts were read on TopCount (Perkin Elmer).

[2] = Drug levels in blood plasma and homogenized brain tissue by mass spectroscopy; format: in vivo, mouse; settings: intravenous; for concentration at 15 min: CD-1, mouse, 3 mg/Kg i.v. dose, ex vivo occupancy study, mice; for concentration at 21 min: 3 mg/Kg i.v., end of mouse forced swim test
Description: as §1
Mouse Forced swim test (mFST). Forced Swim Test (FST) is an animal model used to assess antidepressant compounds in preclinical studies. The FST was performed similar to the method of Porsolt et al. with modifications (Porsolt R D, Bertin A, Jalfre M. Behavioral despair in mice: a primary screening test for antidepressants. Arch Int Pharmacodyn Thér 1977; 229:327-36). In this paradigm, mice are forced to swim in an inescapable cylinder filled with water. Under these conditions, mice will initially try to escape and eventually develop immobility behavior; this behavior is interpreted as a passive stress-coping strategy or depression-like behavior. Swim tanks were positioned inside a box made of plastic. Each tank was separated from each other by opaque plastic sheets to the height of cylinders. Three mice were subjected to test at a time. Swim sessions were conducted for 6 min by placing mice in individual glass cylinders (46 cm height×20 cm diameter) containing water (20-cm deep, maintained at 24-25° C.). […] The mouse was judged to be immobile whenever it remained floating passively without struggling in the water and only making those movements necessary to keep its nose/head above the water and to keep it afloat. The duration of immobility was evaluated during the total 6 min of the test and expressed as duration (sec) of immobility. Each mouse was tested only once. At the end of each session, mice were dried with a dry cloth and returned to their home cage placed on a thermal blanket to prevent hypothermia. Water was replaced after each trial. All testing sessions were recorded with a video camera (Sony Handicam, Model: DCR-HC38E; PAL) and scoring was done using the Forced Swim Scan, Version 2.0 software (Clever Systems Inc., Reston, Va., USA; see Hayashi E, Shimamura M, Kuratani K, Kinoshita M, Hara H. Automated experimental system capturing three behavioral components during murine forced swim test. Life Sci. 2011 February 28; 88 (9-10): 411-7 and Yuan P, Tragon T, Xia M, Leclair C A, Skoumbourdis A P, Zheng W, Thomas C J, Huang R, Austin C P, Chen G, Guitart X. Phosphodiesterase 4 inhibitors enhance sexual pleasure-seeking activity in rodents. Pharmacol Biochem Behav. 2011; 98(3):349-55). For NCE testing: Test compound was administered in mice 15 min before swim session by i.v. route and immobility time was recorded for next 6 min. […] The NR2B receptor occupancy was determined as reported above and was determined to be 67%.

hERG channels = biological target: T3, hERG channels (Homo sapiens, UniProt Q12809); assay: hERG electrophysiology assay (patch clamp); format: cell-based; settings: HEK 293 cells stably expressing hERG channels, tail current
T3 construct: expressed in transfected cells
Description: hERG electrophysiology assay. The experimental compounds were assessed for hERG activity on HEK 293 cells stably expressing hERG channels using patch clamp technique. Coverslips plated with hERG expressing cells were placed in the experimental chamber and were perfused with a solution composed of (in mM): 140 NaCl, 4 KCl, 1.8 CaCl2, 1 MgCl2, 10 Glucose, 10 HEPES (pH 7.4, NaOH) at room temperature. Borosilicate patch pipettes had tip resistances of 2-4 Mohms when filled with an internal solution containing: 130 KCl, 1 MgCl2, 1 CaCl2, 10 EGTA, 10 HEPES, 5 ATP-K2 (pH 7.2, KOH). The cells were clamped at −80 mV in whole cell configuration using an Axopatch 200B (Axon instruments, Union City, Calif.) patch clamp amplifier controlled by pClamp (Axon instruments) software. […] First, tail currents were recorded in presence of extracellular solution alone (control) and subsequently, in extracellular solution containing increasing compound concentrations. […] The percentage inhibition at each concentration was calculated as reduction in peak tail current with respect to the peak tail current recorded in the presence of control solution. […]

mice = assay: Mouse Forced swim test (mFST); format: in vivo; settings: 3 mg/Kg i.v., 15 min before swim session, 6 min test
Description: Mouse Forced swim test (mFST). Forced Swim Test (FST) is an animal model used to assess antidepressant compounds in preclinical studies. The FST was performed similar to the method of Porsolt et al. with modifications (Porsolt R D, Bertin A, Jalfre M. Behavioral despair in mice: a primary screening test for antidepressants. Arch Int Pharmacodyn Thér 1977; 229:327-36). In this paradigm, mice are forced to swim in an inescapable cylinder filled with water. Under these conditions, mice will initially try to escape and eventually develop immobility behavior; this behavior is interpreted as a passive stress-coping strategy or depression-like behavior. […] The duration of immobility was evaluated during the total 6 min of the test and expressed as duration (sec) of immobility. […] All testing sessions were recorded with a video camera (Sony Handicam, Model: DCR-HC38E; PAL) and scoring was done using the Forced Swim Scan, Version 2.0 software (Clever Systems Inc., Reston, Va., USA; see Hayashi E, Shimamura M, Kuratani K, Kinoshita M, Hara H. Automated experimental system capturing three behavioral components during murine forced swim test. Life Sci. 2011 February 28; 88 (9-10): 411-7 and Yuan P, Tragon T, Xia M, Leclair C A, Skoumbourdis A P, Zheng W, Thomas C J, Huang R, Austin C P, Chen G, Guitart X. Phosphodiesterase 4 inhibitors enhance sexual pleasure-seeking activity in rodents. […]

T1 sequence (Q01097 27-1482, other chains not shown): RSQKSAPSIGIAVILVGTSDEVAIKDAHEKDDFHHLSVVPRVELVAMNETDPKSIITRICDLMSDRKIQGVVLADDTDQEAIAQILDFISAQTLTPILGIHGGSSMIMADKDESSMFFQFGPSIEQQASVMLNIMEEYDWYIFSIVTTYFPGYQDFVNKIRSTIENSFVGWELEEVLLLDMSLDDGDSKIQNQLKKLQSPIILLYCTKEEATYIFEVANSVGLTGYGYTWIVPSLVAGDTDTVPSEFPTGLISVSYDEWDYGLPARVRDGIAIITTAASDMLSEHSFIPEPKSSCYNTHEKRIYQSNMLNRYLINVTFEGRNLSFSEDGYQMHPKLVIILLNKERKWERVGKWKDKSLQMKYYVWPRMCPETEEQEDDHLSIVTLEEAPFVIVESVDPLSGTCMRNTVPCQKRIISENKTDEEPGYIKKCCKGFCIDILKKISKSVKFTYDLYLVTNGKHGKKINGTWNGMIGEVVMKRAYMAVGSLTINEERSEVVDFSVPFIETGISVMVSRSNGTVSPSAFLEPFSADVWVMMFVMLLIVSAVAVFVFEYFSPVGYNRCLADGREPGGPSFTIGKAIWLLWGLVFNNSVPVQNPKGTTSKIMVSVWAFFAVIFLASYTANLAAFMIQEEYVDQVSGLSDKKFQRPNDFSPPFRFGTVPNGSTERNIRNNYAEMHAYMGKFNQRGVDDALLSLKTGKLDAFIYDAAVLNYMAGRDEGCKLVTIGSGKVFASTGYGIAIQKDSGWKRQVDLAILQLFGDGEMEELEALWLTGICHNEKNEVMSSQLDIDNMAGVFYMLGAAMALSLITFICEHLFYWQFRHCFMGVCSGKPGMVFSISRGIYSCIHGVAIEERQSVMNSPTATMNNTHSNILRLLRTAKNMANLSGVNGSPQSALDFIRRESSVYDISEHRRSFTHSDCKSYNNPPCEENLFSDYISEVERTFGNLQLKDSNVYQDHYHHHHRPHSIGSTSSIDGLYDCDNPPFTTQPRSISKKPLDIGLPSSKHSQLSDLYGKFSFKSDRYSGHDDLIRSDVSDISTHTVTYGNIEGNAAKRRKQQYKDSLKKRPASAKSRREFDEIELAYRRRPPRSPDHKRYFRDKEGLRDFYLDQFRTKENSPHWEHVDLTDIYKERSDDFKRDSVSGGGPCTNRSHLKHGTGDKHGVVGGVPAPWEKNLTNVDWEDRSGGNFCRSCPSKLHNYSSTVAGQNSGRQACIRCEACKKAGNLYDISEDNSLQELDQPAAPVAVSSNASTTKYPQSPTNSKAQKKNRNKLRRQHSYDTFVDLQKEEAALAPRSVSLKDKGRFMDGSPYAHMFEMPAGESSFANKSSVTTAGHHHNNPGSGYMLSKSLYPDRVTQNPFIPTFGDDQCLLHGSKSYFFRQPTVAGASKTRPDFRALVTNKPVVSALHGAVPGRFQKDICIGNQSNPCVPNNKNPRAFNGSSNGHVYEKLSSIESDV
T2 sequence (Q00960 27-1482, other chains not shown): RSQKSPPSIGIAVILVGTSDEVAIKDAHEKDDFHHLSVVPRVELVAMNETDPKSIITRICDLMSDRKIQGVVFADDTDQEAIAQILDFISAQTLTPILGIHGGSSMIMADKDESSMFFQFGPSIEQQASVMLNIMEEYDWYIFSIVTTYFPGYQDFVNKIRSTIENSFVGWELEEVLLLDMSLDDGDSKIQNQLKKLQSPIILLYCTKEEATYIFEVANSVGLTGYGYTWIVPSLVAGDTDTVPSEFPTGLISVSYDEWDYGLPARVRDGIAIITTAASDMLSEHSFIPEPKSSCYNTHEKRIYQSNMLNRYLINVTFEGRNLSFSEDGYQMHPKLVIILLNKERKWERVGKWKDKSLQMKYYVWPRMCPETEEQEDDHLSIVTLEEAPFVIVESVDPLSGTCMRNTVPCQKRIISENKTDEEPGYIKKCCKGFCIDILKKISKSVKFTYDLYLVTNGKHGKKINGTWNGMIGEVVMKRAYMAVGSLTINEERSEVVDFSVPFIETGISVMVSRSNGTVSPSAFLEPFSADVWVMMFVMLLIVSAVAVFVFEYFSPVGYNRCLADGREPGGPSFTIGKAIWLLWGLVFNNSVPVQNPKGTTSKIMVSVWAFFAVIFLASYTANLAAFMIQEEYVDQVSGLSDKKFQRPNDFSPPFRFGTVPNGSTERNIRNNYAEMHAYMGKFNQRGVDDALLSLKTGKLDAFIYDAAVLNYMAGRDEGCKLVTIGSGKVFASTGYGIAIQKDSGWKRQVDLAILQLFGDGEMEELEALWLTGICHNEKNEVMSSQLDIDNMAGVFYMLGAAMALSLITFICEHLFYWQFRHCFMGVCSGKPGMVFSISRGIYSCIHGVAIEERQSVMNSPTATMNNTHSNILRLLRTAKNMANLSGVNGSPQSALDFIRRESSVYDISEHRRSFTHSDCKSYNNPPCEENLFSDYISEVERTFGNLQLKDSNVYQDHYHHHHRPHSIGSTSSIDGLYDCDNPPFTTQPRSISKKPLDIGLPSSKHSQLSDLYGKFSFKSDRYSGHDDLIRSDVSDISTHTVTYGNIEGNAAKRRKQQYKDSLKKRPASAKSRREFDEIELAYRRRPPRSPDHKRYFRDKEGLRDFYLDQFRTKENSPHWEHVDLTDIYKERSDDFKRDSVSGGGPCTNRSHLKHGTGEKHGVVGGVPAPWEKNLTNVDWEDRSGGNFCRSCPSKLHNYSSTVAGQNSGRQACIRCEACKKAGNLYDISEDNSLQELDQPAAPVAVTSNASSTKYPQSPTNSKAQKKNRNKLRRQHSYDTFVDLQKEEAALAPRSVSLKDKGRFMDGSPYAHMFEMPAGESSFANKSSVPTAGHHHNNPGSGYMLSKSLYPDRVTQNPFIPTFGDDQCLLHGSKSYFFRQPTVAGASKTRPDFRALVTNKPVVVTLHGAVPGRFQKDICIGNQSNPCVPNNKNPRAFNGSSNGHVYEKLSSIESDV
T3 sequence (Q12809 whole entry): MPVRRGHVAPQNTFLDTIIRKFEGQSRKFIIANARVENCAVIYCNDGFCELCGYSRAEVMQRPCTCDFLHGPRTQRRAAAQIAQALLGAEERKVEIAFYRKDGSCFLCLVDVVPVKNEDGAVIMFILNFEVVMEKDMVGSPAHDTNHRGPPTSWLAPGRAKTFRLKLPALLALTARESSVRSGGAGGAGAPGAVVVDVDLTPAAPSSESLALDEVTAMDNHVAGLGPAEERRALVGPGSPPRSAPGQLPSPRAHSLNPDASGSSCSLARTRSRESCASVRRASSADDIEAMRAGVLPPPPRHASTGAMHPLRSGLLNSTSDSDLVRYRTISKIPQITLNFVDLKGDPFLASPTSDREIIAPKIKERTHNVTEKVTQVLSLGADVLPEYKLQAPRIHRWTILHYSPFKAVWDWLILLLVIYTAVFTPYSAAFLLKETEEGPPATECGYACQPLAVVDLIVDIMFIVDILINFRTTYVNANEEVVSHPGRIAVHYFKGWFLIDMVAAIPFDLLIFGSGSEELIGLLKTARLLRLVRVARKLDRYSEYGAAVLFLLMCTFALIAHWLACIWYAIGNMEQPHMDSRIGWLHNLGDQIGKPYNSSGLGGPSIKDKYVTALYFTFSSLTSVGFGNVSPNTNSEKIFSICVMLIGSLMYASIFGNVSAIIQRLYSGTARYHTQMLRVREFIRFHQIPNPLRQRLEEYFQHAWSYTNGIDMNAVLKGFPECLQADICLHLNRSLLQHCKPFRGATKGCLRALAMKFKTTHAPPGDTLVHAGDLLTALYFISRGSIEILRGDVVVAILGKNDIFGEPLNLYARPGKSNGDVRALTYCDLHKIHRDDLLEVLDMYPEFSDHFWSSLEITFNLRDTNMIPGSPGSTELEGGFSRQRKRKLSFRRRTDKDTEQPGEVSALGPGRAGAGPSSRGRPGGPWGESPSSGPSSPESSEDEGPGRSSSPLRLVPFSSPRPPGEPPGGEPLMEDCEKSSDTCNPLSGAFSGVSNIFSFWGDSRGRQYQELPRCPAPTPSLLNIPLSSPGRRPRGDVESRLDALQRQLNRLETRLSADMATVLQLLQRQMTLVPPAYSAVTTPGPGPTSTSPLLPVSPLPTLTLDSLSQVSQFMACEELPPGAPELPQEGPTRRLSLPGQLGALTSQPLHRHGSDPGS

SMILES	occupancy of brain-resident NR2B-subtype receptors (in words) (NR2B-subtype receptors; animals after dosing)	Ki [1] [µM]	receptor occupancy at 3 mg/kg (NR2B-subtype receptors; 3 mg/Kg i.v. dose, CD-1 mice, forebrains harvested 15 minutes post-dosing) [%]	receptor occupancy at 3 mg/kg (NR2B-subtype receptors; 3 mg/Kg i.v., mice of the forced swim test) [%]	concentration at 15 min ([2]; brain homogenate, read-out: drug levels in the homogonized brain tissue) [nM]	concentration at 15 min ([2]; plasma, read-out: Drug levels in the blood plasma) [nM]	concentration at 21 min ([2]; brain, read-out: Drug levels in the brain) [nM]	concentration at 21 min ([2]; plasma, read-out: Drug levels in the plasma) [nM]	IC50 (hERG channels) [µM]	immobility time (mice)
O=C1C(N2CCN(c3ncc(O)cn3)CC2)CCN1c1ccc(Cl)c(F)c1 (racemic) [Example 1, 1-(4-chloro-3-fluorophenyl)-3-(4-(5-hydroxypyrimidin-2-yl)piperazin-1-yl)pyrrolidin-2-one]	occupies brain-resident NR2B-subtype receptors									
Cc1ccc(N2CCC(N3CCN(c4ccc(O)cn4)CC3)C2=O)cc1F (single isomer, unassigned) [Example 14 P1, 1-(3-fluoro-4-methylphenyl)-3-(4-(5-hydroxypyridin-2-yl)piperazin-1-yl)pyrrolidin-2-one]		0.004	86	67	1340	1020	410	314	8.9	statistically significant decrease

From patent US10961229B2, “Selective NR2B antagonists” (Bristol-Myers Squibb Company, priority 2015, dated 2021)
